From the supplement of paper PMC10307832

Tests used:
Assay in all cases: relative viability (nuclei count vs DMSO), 5 days (fraction); higher = more cells survive
HCC-78 = system: HCC-78
Summary of the method: (§1)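 Values are medians from duplicate plates. Each reflects relative viability, defined as the nuclei count of treated wells over that of vehicle wells. Lung cancer cell lines in 1536-well plates were pin-tool dosed one day after seeding with one drug alone or with a fixed anchor-drug dose plus five library-drug doses (not always all listed) in √10 steps, then fixed, stained and imaged at 4× after 5 days.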

NCI-H1650 = system: NCI-H1650
Summary of the method: as §1

NCI-H727 = system: NCI-H727
Summary of the method: as §1

NCI-H1563 = system: NCI-H1563
Summary of the method: as §1

NCI-H1734 = system: NCI-H1734
Summary of the method: as §1

LU99A = system: LU99A
Summary of the method: as §1

RERF-LC-KJ = system: RERF-LC-KJ
Summary of the method: as §1

NCI-H2126 = system: NCI-H2126
Summary of the method: as §1

LCLC-97TM1 = system: LCLC-97TM1
Summary of the method: as §1

EMC-BAC-2 = system: EMC-BAC-2
Summary of the method: as §1

NCI-H2087 = system: NCI-H2087
Summary of the method: as §1

COR-L 105 = system: COR-L 105
Summary of the method: as §1

EKVX = system: EKVX
Summary of the method: as §1

EPLC-272H = system: EPLC-272H
Summary of the method: as §1

SW 1573 = system: SW 1573
Summary of the method: as §1

LOU-NH91 = system: LOU-NH91
Summary of the method: as §1

BEN = system: BEN
Summary of the method: as §1

NCI-H1792 = system: NCI-H1792
Summary of the method: as §1

HCC-827 = system: HCC-827
Summary of the method: as §1

CCCCCCCCCCCC1=C(O)C(=O)C=C(O)C1=O [Embelin] + CC(C)C[C@H](NC(=O)[C@H](Cc1ccccc1)NC(=O)c1cnccn1)B(O)O [Bortezomib] (partner 0.002 µM)
relative viability (HCC-78; first compound 0.08 µM): 0.605
relative viability (HCC-78; first compound 0.8 µM): 0.532
relative viability (HCC-78; first compound 2.53 µM): 0.555
relative viability (HCC-78; first compound 8 µM): 0.438
relative viability (NCI-H1650; first compound 0.08 µM): 0.191
relative viability (NCI-H1650; first compound 0.8 µM): 0.189
relative viability (NCI-H1650; first compound 2.53 µM): 0.203
relative viability (NCI-H1650; first compound 8 µM): 0.213
relative viability (NCI-H727; first compound 0.08 µM): 0.813
relative viability (NCI-H727; first compound 0.8 µM): 0.997
relative viability (NCI-H727; first compound 2.53 µM): 1.02
relative viability (NCI-H727; first compound 8 µM): 0.798
relative viability (NCI-H1563; first compound 0.08 µM): 1.06
relative viability (NCI-H1563; first compound 0.8 µM): 0.953
relative viability (NCI-H1563; first compound 2.53 µM): 0.787
relative viability (NCI-H1563; first compound 8 µM): 0.753
relative viability (NCI-H1734; first compound 0.08 µM): 0.882
relative viability (NCI-H1734; first compound 0.8 µM): 1.35
relative viability (NCI-H1734; first compound 2.53 µM): 1.14
relative viability (NCI-H1734; first compound 8 µM): 0.944
relative viability (LU99A; first compound 0.08 µM): 1.37
relative viability (LU99A; first compound 0.8 µM): 1.23
relative viability (LU99A; first compound 2.53 µM): 1.1
relative viability (LU99A; first compound 8 µM): 1.07
relative viability (RERF-LC-KJ; first compound 0.08 µM): 0.984
relative viability (RERF-LC-KJ; first compound 0.8 µM): 1.31
relative viability (RERF-LC-KJ; first compound 2.53 µM): 1.3
relative viability (RERF-LC-KJ; first compound 8 µM): 1.19
relative viability (NCI-H2126; first compound 0.08 µM): 1.14
relative viability (NCI-H2126; first compound 0.8 µM): 1.11
relative viability (NCI-H2126; first compound 2.53 µM): 1.08
relative viability (NCI-H2126; first compound 8 µM): 1.19
relative viability (LCLC-97TM1; first compound 0.08 µM): 0.812
relative viability (LCLC-97TM1; first compound 0.8 µM): 0.774
relative viability (LCLC-97TM1; first compound 2.53 µM): 0.29
relative viability (LCLC-97TM1; first compound 8 µM): 0.907
relative viability (EMC-BAC-2; first compound 0.08 µM): 1.04
relative viability (EMC-BAC-2; first compound 0.8 µM): 1.18
relative viability (EMC-BAC-2; first compound 2.53 µM): 1.21
relative viability (EMC-BAC-2; first compound 8 µM): 1.09
relative viability (NCI-H2087; first compound 0.08 µM): 0.83
relative viability (NCI-H2087; first compound 0.8 µM): 0.807
relative viability (NCI-H2087; first compound 2.53 µM): 0.735
relative viability (NCI-H2087; first compound 8 µM): 0.935
relative viability (COR-L 105; first compound 0.08 µM): 0.81
relative viability (COR-L 105; first compound 0.8 µM): 0.901
relative viability (COR-L 105; first compound 2.53 µM): 0.765
relative viability (COR-L 105; first compound 8 µM): 0.961
relative viability (EKVX; first compound 0.08 µM): 0.976
relative viability (EKVX; first compound 0.8 µM): 0.936
relative viability (EKVX; first compound 2.53 µM): 1.14
relative viability (EKVX; first compound 8 µM): 1.13
relative viability (EPLC-272H; first compound 0.08 µM): 0.804
relative viability (EPLC-272H; first compound 0.8 µM): 1.07
relative viability (EPLC-272H; first compound 2.53 µM): 1.17
relative viability (EPLC-272H; first compound 8 µM): 0.86
relative viability (SW 1573; first compound 0.08 µM): 1.26
relative viability (SW 1573; first compound 0.8 µM): 1.29
relative viability (SW 1573; first compound 2.53 µM): 1.2
relative viability (SW 1573; first compound 8 µM): 1.27
relative viability (LOU-NH91; first compound 0.08 µM): 0.554
relative viability (LOU-NH91; first compound 0.8 µM): 0.578
relative viability (LOU-NH91; first compound 2.53 µM): 0.504
relative viability (LOU-NH91; first compound 8 µM): 0.509
relative viability (BEN; first compound 0.08 µM): 0.85
relative viability (BEN; first compound 0.8 µM): 1.04
relative viability (BEN; first compound 2.53 µM): 0.941
relative viability (BEN; first compound 8 µM): 0.899
relative viability (NCI-H1792; first compound 0.08 µM): 0.93
relative viability (NCI-H1792; first compound 0.8 µM): 1
relative viability (NCI-H1792; first compound 2.53 µM): 1.09
relative viability (NCI-H1792; first compound 8 µM): 1.03
relative viability (HCC-827; first compound 0.08 µM): 1.12
relative viability (HCC-827; first compound 0.8 µM): 1.07
relative viability (HCC-827; first compound 2.53 µM): 1.06
relative viability (HCC-827; first compound 8 µM): 1.17
